Reference: patent US20150284394A1, “INHIBITORS OF BRUTON'S TYROSINE KINASE” (HOFFMANN-LA ROCHE INC., priority 2012, published 2015)

Columns and labels:
[1] = biological target: Bruton's Tyrosine Kinase (Homo sapiens, UniProt Q06187); assay: Bruton's Tyrosine Kinase (BTK) Inhibition TR-FRET competition assay; type: binding; conditions: inactivated state of BTK; Kinase Tracer 178; 18-24 h at 14° C
Experimental: This BTK competition assay measures compound potency (IC50) for the inactivated state of Bruton's Tyrosine Kinase using FRET (Forster/Fluorescence Resonance Energy Transfer) technology. The BTK-Eu complex was incubated on ice one hour prior to use at a starting concentration of 50 nM BTK-Bioease™: 10 nM Eu-streptavidin (Perkin-Elmer Catalog# AD0062). The assay buffer consisted of 20 mM HEPES (pH 7.15), 0.1 mM DTT, 10 mM MgCl2, 0.5 mg/ml BSA with 3% Kinase Stabilizer (Fremont Biosolutions, Catalog # STB-K02). After 1 h, the reaction mixture from above was diluted 10 fold in assay buffer to make 5 nM BTK: 1 nM Eu-Streptavidin complex (donor fluorophore). […] of a mixture of 0.11 nM BTK-Eu and 0.11 nM Kinase Tracer 178 (Invitrogen, Catalog # PV5593,) with BTK-Eu alone as no negative control, was then dispensed into 384-well flat bottom plates (Greiner, 784076). Compounds to be tested in assay were prepared as 10× concentrations and serial dilution in half-log increments was performed in DMSO so as to generate 10 point curves. To initiate the FRET reaction, compounds prepared as 10× stock in DMSO was added to the plates and the plates were incubated 18-24 h at 14° C.
After the incubation the plates were read on a BMG Pherastar Fluorescent plate reader (or equivalent) and used to measure the emission energy from the europium donor fluorophore (620 nm emission) and the FRET (665 nm emission). The negative control well values were averaged to obtain the mean minimum. The positive “no inhibitor” control wells were averaged to obtain the mean maximum. Percent of maximal FRET was calculated using following equation:
% max FRET=100×[(FSRcmpd−FSRmean min)/(FSRmean max−FSRmean min)]
where FSR=FRET Signal ratio. % Max FRET curves were plotted in Activity Base (Excel) and the IC50(%), hill slope, z′ and % CV were determined. The mean IC50 and standard deviation will be derived from duplicate curves (singlet inhibition curves from two independent dilutions) using Microsoft Excel.

[2] = test system: B cells in human blood; assay: Inhibition of B cell activation in whole blood measured by CD69 expression; type: cell-based; conditions: anti-IgM stimulation, 20 hours, CD69-positive cells that are also CD20-positive, read-out: HWB IC50
Experimental: A procedure to test the ability of Btk inhibitors to suppress B cell receptor-mediated activation of B cells in human blood is as follows:
Human whole blood (HWB) is obtained from healthy volunteers, with the following restrictions: 24 hr drug-free, non-smokers. Blood is collected by venipuncture into Vacutainer tubes anticoagulated with sodium heparin. Test compounds are diluted to ten times the desired starting drug concentration in PBS (20×), followed by three-fold serial dilutions in 10% DMSO in PBS to produce a nine point dose-response curve. 5.5 μl of each compound dilution is added in duplicate to a 2 ml 96-well V bottom plate (Analytical Sales and Services, #59623-23); 5.5 μl of 10% DMSO in PBS is added to control and no-stimulus wells. HWB (100 μl) is added to each well, and after mixing the plates are incubated at 37 C, 5% CO2, 100% humidity for 30 minutes. Goat F(ab′)2 anti-human IgM (Southern Biotech, #2022-14) (10 μl of a 500 μg/ml solution, 50 μg/ml final concentration) is added to each well (except the no-stimulus wells) with mixing and the plates are incubated for an additional 20 hours.
At the end of the 20 hour incubation, samples are incubated with florescent-probe-labeled anti-bodies (15 μl PE Mouse anti-Human CD20, BD Pharmingen, #555623, and/or 20 ul APC Mouse anti-Human CD69, BD Pharmingen #555533) for 30 minutes, at 37 C, 5% CO2, 100% humidity. Included are induced control, unstained and single stains for compensation adjustments and initial voltage settings. Samples are then lysed with 1 ml of 1× Pharmingen Lyse Buffer (BD Pharmingen #555899), and plates are centrifuged at 1800 rpm for 5 minutes. Supernatants are removed via suction and the remaining pellets are lysed again with another 1 ml of 1× Pharmingen Lyse Buffer, and plates are spun down as before. Supernatants are aspirated and remaining pellets are washed in FACs buffer (PBS+1% FBS). After a final spin, the supernantants are removed and pellets are resuspended in 180 μl of FACs buffer. Samples are transferred to a 96 well plate suitable to be run on the HTS 96 well system on the BD LSR II flow cytometer.
Using appropriate excitation and emission wavelengths for the fluorophores used, data are acquired and percent positive cell values are obtained using Cell Quest Software. Results are initially analyzed by FACS analysis software (Flow Jo). […] The IC50 values are calculated using XLfit software version 3, equation 201.

Sequence of Bruton's Tyrosine Kinase (Q06187 whole entry): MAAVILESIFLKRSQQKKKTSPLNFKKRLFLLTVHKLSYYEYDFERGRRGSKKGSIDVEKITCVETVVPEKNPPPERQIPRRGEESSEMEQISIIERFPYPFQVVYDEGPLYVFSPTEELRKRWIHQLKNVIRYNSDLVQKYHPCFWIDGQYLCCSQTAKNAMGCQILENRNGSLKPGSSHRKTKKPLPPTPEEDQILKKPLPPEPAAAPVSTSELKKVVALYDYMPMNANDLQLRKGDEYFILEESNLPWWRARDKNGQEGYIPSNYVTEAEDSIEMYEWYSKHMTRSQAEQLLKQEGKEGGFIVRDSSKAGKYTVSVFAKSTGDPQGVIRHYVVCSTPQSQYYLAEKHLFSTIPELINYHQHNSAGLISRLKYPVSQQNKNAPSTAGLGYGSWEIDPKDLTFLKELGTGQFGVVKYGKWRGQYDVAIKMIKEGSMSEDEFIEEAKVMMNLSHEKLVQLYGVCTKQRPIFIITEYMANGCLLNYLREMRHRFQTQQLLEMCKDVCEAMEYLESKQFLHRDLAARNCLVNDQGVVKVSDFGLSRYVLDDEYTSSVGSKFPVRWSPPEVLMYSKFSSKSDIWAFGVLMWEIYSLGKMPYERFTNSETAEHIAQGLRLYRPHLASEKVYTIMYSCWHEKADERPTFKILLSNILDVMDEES

Compound	IC50 [1]	IC50 [2]
CN(C)CCn1cc(-c2cc3c(-c4ccc(CNC(=O)N5CC(OC(C)(C)C)C5)c(F)c4)ncnc3[nH]2)cn1 [Compound I-43, 3-tert-Butoxy-azetidine-1-carboxylic acid 4-{6-[1-(2-dimethylamino-ethyl)-1H-pyrazol-4-yl]-7H-pyrrolo[2,3-d]pyrimidin-4-yl}-2-fluoro-benzylamide]	0.6 nM	276 nM
CN(C)CCn1cc(-c2cc3c(-c4ccc(CNC(=O)N5Cc6ccccc6C5)c(F)c4)ncnc3[nH]2)cn1 [Compound I-44, 1,3-Dihydro-isoindole-2-carboxylic acid 4-{6-[1-(2-dimethylamino-ethyl)-1H-pyrazol-4-yl]-7H-pyrrolo[2,3-d]pyrimidin-4-yl}-2-fluoro-benzylamide]	0.52 nM	188 nM
CCOC(=O)Cn1cc(-c2cc3c(-c4ccc(CNC(=O)c5ccc(C(C)(C)C)cc5)c(F)c4)ncnc3[nH]2)cn1 [Compound I-45, [4-(4-{4-[(4-tert-Butyl-benzoylamino)-methyl]-3-fluoro-phenyl}-7H-pyrrolo[2,3-d]pyrimidin-6-yl)-pyrazol-1-yl]-acetic acid ethyl ester]	0.6 nM	222 nM
CC(C)(C)c1ccc(C(=O)NCc2ccc(-c3ncnc4[nH]c(-c5cnn(CC(=O)O)c5)cc34)cc2F)cc1 [Compound I-46, [4-(4-{4-[(4-tert-Butyl-benzoylamino)-methyl]-3-fluoro-phenyl}-7H-pyrrolo[2,3-d]pyrimidin-6-yl)-pyrazol-1-yl]-acetic acid]	1 nM	> 50000 nM
Cn1cc(-c2cc3c(-c4ccc(CNC(=O)c5cc6n(n5)CCCC6)c(F)c4)ncnc3[nH]2)cn1 [Compound I-47, N-(2-fluoro-4-(6-(1-methyl-1H-pyrazol-4-yl)-7H-pyrrolo[2,3-d]pyrimidin-4-yl)benzyl)-4,5,6,7-tetrahydropyrazolo[1,5-a]pyridine-2-carboxamide]	3.2 nM	674 nM
Cn1cc(-c2cc3c(-c4ccc(CNC(=O)c5nc(C(C)(C)C)no5)c(F)c4)ncnc3[nH]2)cn1 [Compound I-49, 3-tert-Butyl-[1,2,4]oxadiazole-5-carboxylic acid 2-fluoro-4-[6-(1-methyl-1H-pyrazol-4-yl)-7H-pyrrolo[2,3-d]pyrimidin-4-yl]-benzylamide]	0.11 nM	2 nM
